Like-named read-outs stand apart in the source and are kept apart here.
Legend:
[1] = not given; remark: listed apart in the source
[2] = Stability in human plasma; assay type: in vitro ADME
Experimental: Reagents and solvents were purchased reagent-grade and used without further purification. Pooled human plasma, with sodium citrate as an anticoagulant, was purchased from Innovative Research and stored at −20° C. THF was freshly distilled from sodium benzophenone ketyl. All reactions were performed in oven-dried glassware under an Ar atmosphere. Evaporation and concentration in vacuo was performed at 20° C. TLC was conducted using precoated SiO2 60 F254 glass plates from EMD with visualization by UV light (254 or 366 nm). Chiral phase HPLC was performed using a Shimadzu HPLC on a semi-preparative Diacel ChiralCel OD column (0.46 cm×25 cm) with a flow rate of 7 mL/min and with UV detection at λ=254 nm. Optical rotations were determined on a Rudolf Research Analytical Autopol III Automatic Polarimeter (λ=589 nm, 25° C.).

[3] = system: L1210 (ATCC CCL-219) mouse lymphocytic leukemia cells; test: Cell growth inhibition assay (phosphatase readout); assay type: cell-based
Experimental: Compounds were tested for their cell growth inhibition of L1210 (ATCC CCL-219) mouse lymphocytic leukemia cells. A population of cells (>1×10^6 cells/mL as determined with a hemocytometer) was diluted with an appropriate amount of Dulbecco-modified Eagle Medium (DMEM, Gibco) containing 10% fetal bovine serum (FBS, Gibco) to a final concentration of 30,000 cells/mL. To each well of a 96-well plate (Corning® Costar®), 100 μL of the cell-media solution was added with a multichannel pipette. The cultures were incubated at 37° C. in an atmosphere of 5% CO2 and 95% humidified air for 24 hours. The test compounds were added to the plate as follows: test substances were diluted in DMSO to a concentration of 1 mM and 10-fold serial dilutions were performed on a separate 96-well plate. Fresh culture medium (100 μL) was added to each well of cells to constitute 200 μL of medium per well followed by 2 μL of each test agent. Compounds were tested in duplicate (≧2 times) at six concentrations between 0-100 nM or 0-1000 nM. Following addition, cultures were incubated for an additional 72 hours.
A phosphatase assay was used to establish the IC50 values as follows: the media in each cell was removed and 100 μL of phosphatase solution (100 mg phosphatase substrate in 30 mL 0.1 M NaOAc, pH 5.5, 0.1% Triton® X-100 buffer) was added to each well. The plates were incubated at 37° C. for 5 minutes. After the given incubation time, 50 μL of 0.1 N NaOH was added to each well and the absorption at 405 nm was determined using a 96 well plate reader. As the absorption is directly proportional to the number of living cells, the IC50 values were calculated and the reported values represent of the average of ≧4 determinations (SD±10%).

[4] = Cleavage under reductive conditions; assay type: physicochemical; settings: H2, Pd/C, MeOH, 23° C., 1 hour or Mo(CO)6, MeCN/H2O, reflux, 3 hours
Excerpt: The greater stability of Compound 12 versus Compound 15 toward nucleophilic cleavage of the N—O bond can be attributed to the increased steric hindrance of the tertiary versus secondary nitrogen consistent with prior observations. [Lajiness et al., J. Med. Chem. 2010, 53:7731-7738]

[5] = Stability in acidic media
[6] = system: L1210 murine leukemia cells; test: In vivo antitumor activity, L1210 implanted ip in B6D2F1 mice; design: species or system mouse
Experimental: [Wolfe et al., J. Med. Chem. 2012, 55:5878-5886.] Therefore, the preliminary evaluation of the in vivo antitumor activity of the cyclic N—O pro-drugs was assessed with Compound (+)-6 and was conducted alongside seco-CBI-indole2 (Compound 4) in an antitumor model consisting of L1210 murine leukemia cells implanted ip in B6D2F1 mice traditionally used to initially compare new duocarmycin derivatives (Table 3, below).
B6D2F1 mice were injected intraperitoneally (i.p.) with syngeneic L1210 cells (1×10^6) on day 0. Ten mice were randomly assigned to control vehicle or treatment groups for Compounds (+)-4 and (+)-6 at doses of 60, 100, 250, and 500 μg/kg/inj for Compounds (+)-4 or 60, 200, 500, 1000, and 2500 μg/kg/inj for Compounds (+)-6. Compounds (+)-4 and (+)-6 were formulated in 100% DMSO. Both compounds were injected i.p. on days 1, 5, and 9. Following injection of tumor cells, animals were monitored daily and weighed two times per week. Percent survival (T/C) for treated and control groups were determined by dividing the total survival days for each treatment group by the total survival days for the control group and multiplying×100. All animal studies were carried out in the animal facilities of The University of Kansas Medical Center with strict adherence to the guidelines of the IACUC Animal Welfare Committee of KUMC (IACUC approval #2009-1837).

[7] = Mus musculus, L1210, 72 h, read-out: IC50 L1210 unnatural, unnatural enantiomer, 72 hours
[8] = 60 μg/kg i.p. on days 1, 5 and 9
[9] = 200 μg/kg i.p. on days 1, 5 and 9
[10] = 500 μg/kg i.p. on days 1, 5 and 9
[11] = 1000 μg/kg i.p. on days 1, 5 and 9
[12] = 2500 μg/kg i.p. on days 1, 5 and 9

Structure (SMILES): O=C(Nc1ccc2[nH]c(C(=O)N3C[C@@H](CCl)c4c3cc3c5c(cccc45)C(=O)NO3)cc2c1)c1cc2ccccc2[nH]1 [Compound 7, N-(2-(10-(Chloromethyl)-4-oxo-5,8,9,10-tetrahydro-4H-pyrrolo[3′,2′:5,6]naphtho[1,8-de][1,2]oxazine-8-carbonyl)-1H-indol-5-yl)-1H-indole-2-carboxamide]
- t1/2 in pH 7.0 phosphate buffer: 1 week
- free drug in mouse plasma [1]: < 5%
- t1/2 in human plasma [2]: 4 days
- IC50 [3, 7]: 65 nM
- IC50 ([3]; Mus musculus, L1210, natural enantiomer, 72 hours, read-out: IC50 L1210 natural): 0.3 nM

Structure (SMILES): CN1Oc2cc3c(c4cccc(c24)C1=O)[C@H](CCl)CN3C(=O)c1cc2cc(NC(=O)c3cc4ccccc4[nH]3)ccc2[nH]1 [Compound 6, N-(2-(10-(Chloromethyl)-5-methyl-4-oxo-5,8,9,10-tetrahydro-4H-pyrrolo[3′,2′:5,6]naphtho[1,8-de][1,2]oxazine-8-carbonyl)-1H-indol-5-yl)-1H-indole-2-carboxamide]
- cleavage under reductive conditions [4]: rapidly cleaved
- t1/2 in pH 7.0 phosphate buffer: > 4 weeks
- half-life in acidic media ([5]; 1:1 TFA/CH2Cl2, 23° C.): 30 h
- half-life (t1/2) in acidic media ([5]; 4 N HCl/EtOAc, 23° C. (12, 15: after initial Boc deprotection)): > 72 h
- t1/2 in human plasma [2]: > 1 week
- IC50 [3, 7]: 740 nM
- IC50 ([3]; read-out: IC50 L1210 natural, natural enantiomer, 72 hours): 0.99 nM
- MSP (Mean Survival Period) [6, 8]: 28 days
- Surviving Mice (live animals after 366 days) [6, 8]: 0/10
- T/C = Treated/Control (MSP) × 100 [6, 8]: 159
- MSP (Mean Survival Period) [6, 9]: >68 days
- Surviving Mice (live animals after 366 days) [6, 9]: 1/10
- T/C = Treated/Control (MSP) × 100 [6, 9]: >386
- MSP (Mean Survival Period) [6, 10]: >201 days
- Surviving Mice (live animals after 366 days) [6, 10]: 4/10
- T/C = Treated/Control (MSP) × 100 [6, 10]: >1142
- MSP (Mean Survival Period) [6, 11]: >199 days
- Surviving Mice (live animals after 366 days) [6, 11]: 4/10
- T/C = Treated/Control (MSP) × 100 [6, 11]: >1130
- MSP (Mean Survival Period) [6, 12]: >264 days
- Surviving Mice (live animals after 366 days) [6, 12]: 6/10
- T/C = Treated/Control (MSP) × 100 [6, 12]: >1500

Source: patent US9586974B2, “Cyclic N-acyl O-amino phenol CBI derivative” (THE SCRIPPS RESEARCH LINSTITUTE, priority 2013, dated 2017)
